Experimental data reported in ChEMBL document CHEMBL6071211, “Invention of VH-937, a Potent HIV-1 Maturation Inhibitor with the Potential for Infrequent Oral Dosing in Humans” (ACS Med Chem Lett, 2024).
Values after ≈ are worked out from the molar mass of the structure shown.

Legend:
Cytochrome P450 3A4 = Cytochrome P450 3A4 (Homo sapiens, UniProt P08684); assay: Inhibition of CYP3A4 (unknown origin); format: ADME
[1] = system: Human immunodeficiency virus 1; assay: In vitro antiviral activity against fully replicating HIV1 harboring Gag deltaV370 mutant by multicycle assay; format: functional, organism-based
[2] = Clearance in Cynomolgus monkey at 2 mg/kg, iv; format: ADME, organism-based, Macaca fascicularis; settings: in vivo
[3] = AUC (infinity) in mouse at 1 mg/kg, iv; format: ADME, organism-based; settings: in vivo
[4] = system: Human immunodeficiency virus 1; assay: In vitro antiviral activity against fully replicating pseudotype HIV1 harboring Gag A364V mutant by single cycle assay; format: functional, organism-based
[5] = system: Human immunodeficiency virus 1; assay: In vitro antiviral activity against fully replicating pseudotype HIV1 harboring Gag V370A mutant assessed as maximum percent inhibition by single cycle assay relative to control; format: functional
[6] = target: Human immunodeficiency virus type 1 Gag protein (Human immunodeficiency virus 1) (UniProt Q77YG1); assay: Binding affinity to HIV1 wild type Gag mutant assessed as dissociation half life by virus-like particle (VLP) assay
[7] = system: Human immunodeficiency virus 1; assay: Ratio of EC50 for antiviral activity against fully replicating HIV1 harboring to Gag T332S/[…]/prR41G mutant by multicycle assay to EC50 for antiviral activity against fully replicating wild type HIV1 NLRepRluc-P373S by multicycle assay; format: functional
[8] = system: Human immunodeficiency virus 1; assay: Ratio of EC50 for antiviral activity against fully replicating pseudotype HIV1 harboring to Gag T332S/[…]/prR41G mutant by single cycle assay to EC50 for antiviral activity against fully replicating wild type pseudotype HIV1 NLRepRluc-P373S by single cycle assay; format: functional
[9] = system: Human immunodeficiency virus 1; assay: In vitro antiviral activity against fully replicating HIV1 harboring Gag V370A/deltaV371 mutant by multicycle assay; format: functional, organism-based
[10] = system: Human immunodeficiency virus 1; assay: Ratio of EC50 for antiviral activity against fully replicating HIV1 harboring Gag V3621/V370A mutant by multicycle assay to EC50 for antiviral activity against fully replicating wild type HIV1 NLRepRluc-P373S by multicycle assay; format: functional
[11] = system: Human immunodeficiency virus 1; assay: In vitro antiviral activity against fully replicating pseudotype HIV1 harboring Gag V370A mutant by single cycle assay; format: functional, organism-based
[12] = Clearance in rat at 1 mg/kg, iv; format: ADME, organism-based; settings: in vivo
Cytochrome P450 2C19 = Cytochrome P450 2C19 (Homo sapiens, UniProt P33261); assay: Inhibition of CYP2C19 (unknown origin); format: ADME
Cytochrome P450 2C19, sequence (P33261 whole entry): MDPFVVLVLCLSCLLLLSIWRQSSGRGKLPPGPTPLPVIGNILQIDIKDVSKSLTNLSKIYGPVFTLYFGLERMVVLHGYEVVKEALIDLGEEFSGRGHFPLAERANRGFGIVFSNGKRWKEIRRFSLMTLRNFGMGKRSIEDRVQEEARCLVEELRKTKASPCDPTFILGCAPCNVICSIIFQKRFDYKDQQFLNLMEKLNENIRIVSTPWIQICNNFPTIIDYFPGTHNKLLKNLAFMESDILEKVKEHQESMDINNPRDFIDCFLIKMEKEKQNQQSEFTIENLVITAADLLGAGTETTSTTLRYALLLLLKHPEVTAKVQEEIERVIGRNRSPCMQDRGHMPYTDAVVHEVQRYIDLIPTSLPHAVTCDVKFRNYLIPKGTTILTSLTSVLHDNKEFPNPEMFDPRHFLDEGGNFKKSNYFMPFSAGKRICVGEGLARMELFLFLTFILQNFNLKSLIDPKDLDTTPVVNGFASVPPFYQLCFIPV

[13] = AUC (infinity) in rat at 1 mg/kg, iv; format: ADME, organism-based; settings: in vivo
[14] = system: Human immunodeficiency virus 1; assay: Ratio of EC50 for antiviral activity against fully replicating HIV1 harboring Gag deltaV370 mutant by multicycle assay to EC50 for antiviral activity against fully replicating wild type HIV1 NLRepRluc-P373S by multicycle assay; format: functional
[15] = system: Human immunodeficiency virus 1; assay: In vitro antiviral activity against fully replicating HIV1 harboring Gag V370A/deltaV371 mutant assessed as maximum percent inhibition by multicycle assay relative to control; format: functional
[16] = system: Human immunodeficiency virus 1; assay: Ratio of EC50 for antiviral activity against fully replicating pseudotype HIV1 harboring Gag A364V mutant by single cycle assay to EC50 for antiviral activity against fully replicating wild type pseudotype HIV1 NLRepRluc-P373S by single cycle assay; format: functional
[17] = system: Human immunodeficiency virus 1; assay: In vitro antiviral activity against fully replicating HIV1 harboring Gag V370A mutant assessed as maximum percent inhibition by multicycle assay relative to control; format: functional
[18] = Elimination half life in mouse at 1 mg/kg, iv; format: ADME, organism-based; settings: in vivo, read-out: beta t1/2 (converted)
[19] = Toxicity in normal healthy human volunteers assessed as adverse effect at 10 mg for 15 days and followed by 30 mg; settings: in vivo, 360 h, time 15 day
[20] = Oral bioavailability in mouse at 5 mg/kg; format: ADME, organism-based; settings: in vivo
[21] = AUC (infinity) in dog at 2 mg/kg, iv; format: ADME, organism-based, Canis lupus familiaris; settings: in vivo
[22] = system: Human immunodeficiency virus 1; assay: In vitro antiviral activity against fully replicating HIV1 harboring Gag deltaV370 mutant assessed as maximum percent inhibition by multicycle assay relative to control; format: functional
[23] = AUC (infinity) in mouse at 5 mg/kg, po; format: ADME, organism-based; settings: in vivo
[24] = Elimination half life in dog at 5 mg/kg, po; format: ADME, organism-based, Canis lupus familiaris; settings: in vivo, read-out: beta t1/2 (converted)
[25] = Metabolic stability in rat liver microsomes assessed as half life; format: ADME, Microsome
[26] = system: Human immunodeficiency virus 1; assay: Ratio of EC50 for antiviral activity against fully replicating pseudotype HIV1 harboring Gag V3621/V370A mutant by single cycle assay to EC50 for antiviral activity against fully replicating wild type pseudotype HIV1 NLRepRluc-P373S by single cycle assay; format: functional
[27] = Oral bioavailability in dog at 5 mg/kg; format: ADME, organism-based, Canis lupus familiaris; settings: in vivo
[28] = system: Human immunodeficiency virus 1; assay: In vitro antiviral activity against HIV1 subtype A clinical isolate I-2496; format: functional, organism-based; settings: Human immunodeficiency virus 1, I-2496
[29] = Metabolic stability in human liver microsomes assessed as half life; format: ADME, Microsome
[30] = system: Human immunodeficiency virus 1; assay: In vitro antiviral activity against fully replicating HIV1 harboring Gag T332S/[…]/prR41G mutant by multicycle assay; format: functional, organism-based
[31] = system: Human immunodeficiency virus 1; assay: Ratio of EC50 for antiviral activity against fully replicating HIV1 harboring Gag V370A mutant by multicycle assay to EC50 for antiviral activity against fully replicating wild type HIV1 NLRepRluc-P373S by multicycle assay; format: functional
[32] = Metabolic stability in mouse liver microsomes assessed as half life; format: ADME, Microsome
[33] = system: Human immunodeficiency virus 1; assay: In vitro antiviral activity against fully replicating wild type HIV1 NLRepRluc-P373S assessed as maximum percent inhibition by multicycle assay relative to control; format: functional
[34] = system: Human immunodeficiency virus 1; assay: In vitro antiviral activity against fully replicating HIV1 harboring Gag A364V mutant assessed as maximum percent inhibition by multicycle assay relative to control; format: functional
[35] = Volume of distribution at steady state in Cynomolgus monkey at 2 mg/kg, iv; format: ADME, organism-based, Macaca fascicularis; settings: in vivo, read-out: Vdss
[36] = Aqueous solubility of compound; format: physicochemical; settings: buffer
[37] = AUC (infinity) in Cynomolgus monkey at 5 mg/kg, po; format: ADME, organism-based, Macaca fascicularis; settings: in vivo
[38] = Oral bioavailability in rat at 5 mg/kg; format: ADME, organism-based; settings: in vivo
[39] = system: Human immunodeficiency virus 1; assay: In vitro antiviral activity against fully replicating wild type HIV1 NL4-3 in presence of human serum; format: functional, organism-based; settings: Human immunodeficiency virus 1, NL4-3
[40] = system: Human immunodeficiency virus 1; assay: In vitro antiviral activity against fully replicating pseudotype HIV1 harboring Gag V3621/V370A mutant by single cycle assay; format: functional, organism-based
[41] = system: Human immunodeficiency virus 1; assay: In vitro antiviral activity against fully replicating pseudotype HIV1 harboring Gag T332S/[…]/prR41G mutant assessed as maximum percent inhibition by single cycle assay relative to control; format: functional
[42] = system: Human immunodeficiency virus 1; assay: In vitro antiviral activity against fully replicating wild type pseudotype HIV1 NLRepRluc-P373S assessed as maximum percent inhibition by single cycle assay relative to control; format: functional
[43] = system: Human immunodeficiency virus 1; assay: Ratio of EC50 for antiviral activity against fully replicating pseudotype HIV1 harboring Gag V370A mutant by single cycle assay to EC50 for antiviral activity against fully replicating wild type pseudotype HIV1 NLRepRluc-P373S by single cycle assay; format: functional
[44] = system: Human immunodeficiency virus 1; assay: In vitro antiviral activity against fully replicating HIV1 NL4-3 harboring Gag A364V mutant; format: functional, organism-based; settings: Human immunodeficiency virus 1, NL4-3
[45] = Aqueous solubility of compound in fasted state simulated intestinal fluid (FaSSIF) at pH 6.6; format: physicochemical

Cytochrome P450 3A4, sequence (P08684 whole entry): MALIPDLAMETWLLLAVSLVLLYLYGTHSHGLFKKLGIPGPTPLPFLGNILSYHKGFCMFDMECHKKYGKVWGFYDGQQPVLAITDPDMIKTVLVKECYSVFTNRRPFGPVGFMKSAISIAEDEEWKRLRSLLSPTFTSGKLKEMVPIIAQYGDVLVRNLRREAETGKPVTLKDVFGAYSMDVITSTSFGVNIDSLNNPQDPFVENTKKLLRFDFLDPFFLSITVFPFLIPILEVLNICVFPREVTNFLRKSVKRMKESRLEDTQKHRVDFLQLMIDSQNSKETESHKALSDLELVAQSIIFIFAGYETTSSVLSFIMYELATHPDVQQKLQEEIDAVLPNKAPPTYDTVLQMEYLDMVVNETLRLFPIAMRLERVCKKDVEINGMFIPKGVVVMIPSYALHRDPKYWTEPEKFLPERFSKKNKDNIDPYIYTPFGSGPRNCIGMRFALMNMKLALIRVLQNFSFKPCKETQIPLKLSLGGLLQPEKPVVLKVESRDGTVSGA

## C=C(C)[C@@H]1CC[C@]2(NCCN3CCS(=O)(=O)CC3)CC[C@]3(C)[C@H](CC[C@@H]4[C@@]5(C)CC=C(C6=CC[C@](COc7ncccc7C#N)(C(=O)O)CC6)C(C)(C)[C@@H]5CC[C@]43C)[C@@H]12
Cytochrome P450 3A4
  IC50: > 4400 nM
[1]
  EC50: 4 nM
[2]
  clearance: 0.32 mL/min/kg
[3]
  AUC(0-inf): 32.2 µM·h
[4]
  EC50: 32 nM
[5]
  Imax: 99%
[6]
  T1/2: 68.8 h
[7]
  Ratio EC50: 4
[8]
  Ratio EC50: 4.8
[9]
  EC50: 5 nM
[10]
  Ratio EC50: 1
[11]
  EC50: 6 nM
[12]
  clearance: 1.23 mL/min/kg
Cytochrome P450 2C19
  IC50: > 4400 nM
[13]
  AUC(0-inf): 16.1 µM·h
[14]
  Ratio EC50: 2
[15]
  Imax: 92.2%
[16]
  Ratio EC50: 6.4
[17]
  Imax: 98.5%
[18]
  half-life: 10.9 h
[19]
  Activity: Non-Toxic
[20]
  bioavailability: 46%
[21]
  AUC(0-inf): 99.8 µM·h
[22]
  Imax: 97.6%
[23]
  AUC(0-inf): 73.8 µM·h
[24]
  half-life: 26.9 h
[25]
  half-life: > 2 h
[26]
  Ratio EC50: 2.3
[27]
  bioavailability: 59%
[28]
  EC50: 3 nM
[29]
  half-life: > 2 h
[30]
  EC50: 8 nM
[31]
  Ratio EC50: 2
[32]
  half-life: > 2 h
[33]
  Imax: 99.1%
[34]
  Imax: 95.2%
[35]
  Vd: 0.3 L/kg
[36]
  solubility: < 1 mg/mL
[37]
  AUC(0-inf): 56.3 µM·h
[38]
  bioavailability: 45.1%
[39]
  EC50: 26 nM
[40]
  EC50: 11 nM
[41]
  Imax: 96%
[42]
  Imax: 99%
[43]
  Ratio EC50: 1.2
[44]
  EC50: 5 nM
[45]
  solubility: 19 mg/mL (≈ 23 mM)
